Test results from patent publication US20200308240A1, “Targeting Innate Immune Signaling in Neuroinflammation and Neurodegeneration” (The General Hospital Corporation, priority 2016, published 2020).
“Also recorded” adds a separate entry of the source.

Tests used:
[1] = tested on: neuronal differentiated ReNcell VM cells; test: dsRNA mimetic (PolyIC)-induced neurodegeneration in differentiated ReNVM neurons, cell viability by Celltiter-Glo; assay type: cell-based, human; settings: for rescue of PolyIC (dsRNA)-induced neurodegeneration / neuronal death: differentiated ReNVM human neurons transfected with PolyIC, FIGS. 4B-N; for viability of ReNVM neurons transfected with PolyIC: escalating doses of poly IC, 48 hours (2 days), relative to mock-transfected neurons, FIG. 3A-F
Procedure: FIGS. 3A-G. dsRNA induces a Type I interferon response and is sufficient to induced neurodegeneration in human neurons. A-E) Representative transmitted light images of differentiated ReNVM neurons transfected with increasing doses of PolyIC, a dsRNA mimetic, showing a dose-dependent loss of neurons after 48 hours. […] G) Western blots showing the elevated protein expression of type I interferon-stimulated genes in differentiated ReNVM cells 24 hour post transfection with PolyIC, using indicated antibodies.
FIGS. 4A-N. Inhibitors of key type I interferon regulators rescues PolyIC induced neurodegeneration in ReNVM cells.
Building on those findings, a novel in vitro human neuronal culture system was developed to recapitulate this pathophysiologic process. These cells can be used, e.g., to identify compounds that modulate dsRNA-mediated neurodegeneration, as a methodology for screening and validation of hits for the novel targets and related targets on the pathway for neurodegeneration and Alzheimer's disease pathogenesis as well as for purposes of drug screening and validation with the primary outcome being loss of neurons. Briefly, a dsRNA-mimetic was introduced into a human neural progenitor immortalized cell line, ReN VM cells, in vitro. There was profound induction of the Type I interferon signaling pathways that were stimulated in mouse models of neurodegeneration including the pattern recognition receptors, PKR and MDA5. Importantly, accelerated neuronal death was also observed over 48 hours that was dependent on the dose of the dsRNA introduced into the cytoplasm. These cell-based phenotypes in human neurons recapitulated and extended findings (described in PCT/US2015/060401) outlining cytoplasmic double-stranded RNA mediated neuronal cell death in multiple transgenic mouse lines (Nd1, Nd2, and Nd3), each expressing a different gene, and a model of induced cytoplasmic dsRNA of GFP causing accelerated neurodegeneration.
Deploying this cell-based in vitro model of accelerated neurodegeneration of human neurons, a number of inhibitors of Type I interferon signaling pathways were tested.
To determine if cytoplasmic dsRNA is sufficient to mediate neurodegeneration in human neurons, we transfected neuronal differentiated ReNcell VM cells 27, 28, a human neural cell line derived from ventral mesencephalon, with escalating doses of poly IC (which mimics a GC dinucleotide repeat). […] We observed a marked induction of the pattern recognition receptors MDA5 and PKR that are cytoplasmic receptors for dsRNA (FIG. 3G) and TBK1 phosphorylation (FIG. 4A). In addition, downstream signaling events, i.e., MAVS reduction and IRF3 translocation to the nucleus for the MDA5 pathway, and phosphorylation of p38 and HSP27 for the PKR pathway, indicate that that neurons are capable of mounting this innate immune response intrinsically. […]

IRF3 phosphorylation = IRF3 phosphorylation in poly-IC transfected ReNcell VM neurons; assay type: cell-based, human; settings: poly-IC transfected ReNcell VM neurons treated with inhibitor
Excerpt: To determine if cytoplasmic dsRNA is sufficient to mediate neurodegeneration in human neurons, we transfected neuronal differentiated ReNcell VM cells 27, 28, a human neural cell line derived from ventral mesencephalon, with escalating doses of poly IC (which mimics a GC dinucleotide repeat). […] We observed a marked induction of the pattern recognition receptors MDA5 and PKR that are cytoplasmic receptors for dsRNA (FIG. 3G) and TBK1 phosphorylation (FIG. 4A). In addition, downstream signaling events, i.e., MAVS reduction and IRF3 translocation to the nucleus for the MDA5 pathway, and phosphorylation of p38 and HSP27 for the PKR pathway, indicate that that neurons are capable of mounting this innate immune response intrinsically.
Many mutations in the TBK1 coding region are linked to ALS and FTD in an autosomal dominant manner. Expression of these mutant isoforms have been difficult to detect at the RNA and protein levels, giving rise to the hypothesis that haploinsufficiency of TBK1 drives neurodegeneration. Inhibition of TBK1 kinase activity challenge the hypothesis that LOF mutations cause the pathogenesis. TBK1 is activated by polyubiquitination and regulated by proteins binding to its CCH domain, including optineurin which binds TBK1, is mutated in some familial forms of ALS that abrogates inhibition of IRF3 4.

| Compound | rescue of PolyIC (dsRNA)-induced neurodegeneration / neuronal death [1] | further results |
| --- | --- | --- |
| CC1(C)C(=O)C=C[C@]2(C)[C@H]3CC[C@@]4(C)[C@H](c5ccoc5)OC(=O)[C@H]5O[C@]54[C@]3(C)C=C[C@@H]12 [7DG] | did not show rescue of the neuronal death phenotype |  |
| Cc1cc(Nc2nc(N[C@@H](C)c3ncc(F)cn3)ncc2Cl)n[nH]1 [AZD1480, 5-Chloro-N2-[(1S)-1-(5-fluoro-2-pyrimidinyl)ethyl]-N4-(5-methyl-1H-pyrazol-3-yl)-2,4-pyrimidinediamine] | rescued PolyIC induced neurodegeneration |  |
| CCS(=O)(=O)N1CC(CC#N)(n2cc(-c3ncnc4[nH]ccc34)cn2)C1 [Baricitinib, 2-(3-(4-(7H-pyrrolo[2,3-d]pyrimidin-4-yl)-1H-pyrazol-1-yl)-1-(ethylsulfonyl)azetidin-3-yl)acetonitrile] | blocked neurodegeneration in dose dependent manner; also recorded: rescued PolyIC induced neurodegeneration |  |
| O=C1Nc2ccc3ncsc3c2/C1=C/c1cnc[nH]1 [C16] | did not show rescue of the neuronal death phenotype |  |
| N#CCNC(=O)c1ccc(-c2ccnc(Nc3ccc(N4CCOCC4)cc3)n2)cc1 [CYT387, N-(Cyanomethyl)-4-[2-[[4-(4-morpholinyl)phenyl]amino]-4-pyrimidinyl]benzamide] | blocked neurodegeneration in dose dependent manner; also recorded: rescued PolyIC induced neurodegeneration |  |
| O=C(Nc1nc2cccc(-c3ccc(CN4CCS(=O)(=O)CC4)cc3)n2n1)C1CC1 [Filgotinib, N-[5-[4-[(1,1-Dioxido-4-thiomorpholinyl)methyl]phenyl][1,2,4]triazolo[1,5-a]pyridin-2-yl]cyclopropanecarboxamide] | blocked neurodegeneration in dose dependent manner; also recorded: rescued PolyIC induced neurodegeneration |  |
| Cl.O=C(NN1CCC(N2CCCC2)CC1)c1ccc(Nc2nccc(-c3cc4ccccc4s3)n2)cc1 [IKK16, N-(4-Pyrrolidin-1-yl-piperidin-1-yl)-[4-(4-benzo[b]thiophen-2-yl-pyrimidin-2-ylamino)phenyl]carboxamide hydrochloride] |  | rescue of PolyIC (dsRNA)-induced neurodegeneration / neuronal death ([1]; hydrochloride): reversed poly-IC-mediated neurodegeneration; also recorded: rescued PolyIC induced neurodegeneration; IRF3 phosphorylation (IRF3 phosphorylation): reduced IRF3 phosphorylation |
| O=C(NCCCNc1nc(Nc2cccc(NC(=O)N3CCCC3)c2)ncc1I)c1cccs1 [NK-6] | dose-dependent rescue of dsRNA-mediated neurodegeneration | rescue of PolyIC (dsRNA)-induced neurodegeneration / neuronal death ([1]; listed as BX795): rescues poly-IC-mediated neurodegeneration in a dose dependent manner; also recorded: rescued PolyIC induced neurodegeneration |
| NC(=O)Nc1sc(-c2ccc(F)cc2)cc1C(N)=O [NK-7, 2-[(Aminocarbonyl)amino]-5-(4-fluorophenyl)-3-thiophenecarboxamide] | dose-dependent rescue of dsRNA-mediated neurodegeneration | rescue of PolyIC (dsRNA)-induced neurodegeneration / neuronal death ([1]; listed as TPCA1): reversed poly-IC-mediated neurodegeneration; rescue of PolyIC (dsRNA)-induced neurodegeneration / neuronal death ([1]; listed as TPCA-1): rescued PolyIC induced neurodegeneration; IRF3 phosphorylation (IRF3 phosphorylation): reduced IRF3 phosphorylation |
| CC(C)c1ccc2oc3nc(N)c(C(=O)O)cc3c(=O)c2c1 [NK-10, amlexanox] | rescued neurodegeneration; also recorded: dose-dependent rescue of dsRNA-mediated neurodegeneration | rescue of PolyIC (dsRNA)-induced neurodegeneration / neuronal death ([1]; listed as Amlexanox): rescued PolyIC induced neurodegeneration |
| CNC(=O)c1ccc(C)c(-n2c(C)cc(OCc3ccc(F)cc3F)c(Br)c2=O)c1 [PH 797804] | did not show rescue of the neuronal death phenotype |  |
| C1=C/COCc2cc(ccc2OCCN2CCCC2)Nc2nccc(n2)-c2cccc(c2)COC/1 [Pacritinib-1, 11-(2-pyrrolidin-1-yl-ethoxy)-14,19-dioxa-5,7,26-triaza-tetracyclo[19.3.1.1(2,6).1(8,12)]heptacosa-1(25),2(26),3,5,8,10,12(27),16,21,23-decaene] | blocked neurodegeneration in dose dependent manner; also recorded: rescued PolyIC induced neurodegeneration |  |
| Cc1cnc(Nc2ccc(OCCN3CCCC3)cc2)nc1Nc1cccc(S(=O)(=O)NC(C)(C)C)c1 [TG101348, 2.N-tert-butyl-3-(5-methyl-2-(4-(2-(pyrrolidin-1-yl)ethoxy)phenylamino)pyrimidin-4-ylamino)benzenesulfonamide] | blocked neurodegeneration in dose dependent manner; also recorded: rescued PolyIC induced neurodegeneration |  |
| C[C@@H]1CCN(C(=O)CC#N)C[C@@H]1N(C)c1ncnc2[nH]ccc12 [Tofacitinib, 3-((3R,4R)-4-methyl-3-(methyl(7H-pyrrolo [2,3-d]pyrimidin-4-yl)amino)piperidin-1-yl)-3-oxopropanenitrile] | blocked neurodegeneration in dose dependent manner; also recorded: rescued PolyIC induced neurodegeneration |  |
| O=C(Nc1ccc(-c2ccnc(Nc3ccc(N4CCOCC4)cc3)n2)cc1)[C@@H]1CCCN1 [XL019, (S)-N-(4-(2-((4-morpholinophenyl)amino)pyrimidin-4-yl)phenyl)pyrrolidine-2-carboxamide] | blocked neurodegeneration in dose dependent manner; also recorded: rescued PolyIC induced neurodegeneration |  |
| PolyIC |  | viability of ReNVM neurons transfected with PolyIC [1]: dose-dependent loss in cell viability; viability of ReNVM neurons transfected with PolyIC ([1]; listed as poly IC): dose-dependent reduction in their viability |
